Format in all cases: functional, cell-based
The test system of assay [1] is MM1.S. As to the kind of experiment: Cytotoxicity against human MM1.S cells after 72 hrs by celltitre-glo assay.
Assay [2] has as its system RPMI-8226. As to the kind of experiment: Cytotoxicity against human RPMI-8226 cells after 72 hrs by celltitre-glo assay. Particulars: RPMI-8226, 72 h.
For assay [3], the system named is MM1.S. As to the kind of experiment: Synergistic cytotoxic activity against human MM1.S cells after 72 hrs in presence of 0.01 uM of (S)-(3-((2-(2-(1H-indol-3-yl)-2-oxoacetamido)-4-(tert-butylamino)-4-oxobutanamido)methyl)phenyl)boronic acid by celltitre-glo assay.
The test system of assay [4] is RPMI-8226. As to the kind of experiment: Synergistic cytotoxic activity against human RPMI-8226 cells after 72 hrs in presence of 0.5 uM of (S)-(3-((2-(2-(1H-indol-3-yl)-2-oxoacetamido)-4-(tert-butylamino)-4-oxobutanamido)methyl)phenyl)boronic acid by celltitre-glo assay.

In the case of `COC[C@H](NC(=O)[C@H](CCC(=O)NC(C)(C)C)NS(=O)(=O)c1ccc(C)cc1)C(=O)NCc1ccc(F)c2ccccc12`, the EC50 was 0.125 µM in assay [1], 0.69 µM in assay [2], 0.125 µM in assay [3] and 0.006 µM in assay [4].
